Assays:
L1210 = experiment: Antiproliferative activity against mouse L1210 cells by CCK-8 assay; type: functional, cell-based
MCF7 = experiment: Antiproliferative activity against human MCF7 cells by CCK-8 assay; type: functional, cell-based

Row | Compound | IC50 (L1210) | IC50 (MCF7)
1 | Oc1ccc(/C=N/c2nnc(SCc3c[se]c(-c4ccccc4)n3)s2)c(O)c1 | 62.2 µM | 8.51 µM
2 | O=[N+]([O-])c1ccc(/C=N/c2nnc(SCc3c[se]c(-c4ccccc4)n3)s2)cc1 | > 100 µM | 49.1 µM
3 | O=C(O)c1c[se]c(-c2ccccc2)n1 | 60.1 µM | 16.6 µM
4 | Oc1ccccc1/C=N/c1nnc(SCc2c[se]c(-c3ccccc3)n2)s1 | 38.7 µM | 15.2 µM
5 | Brc1ccc(/C=N/c2nnc(SCc3c[se]c(-c4ccccc4)n3)s2)cc1 | 46.5 µM | 14.8 µM
6 | Fc1ccc(/C=N/c2nnc(SCc3c[se]c(-c4ccccc4)n3)s2)cc1 | 56.9 µM | 10.2 µM
7 | COc1cc(/C=N/c2nnc(SCc3c[se]c(-c4ccccc4)n3)s2)ccc1O | > 100 µM | 15 µM
8 | CN(C)c1ccc(/C=N/c2nnc(SCc3c[se]c(-c4ccccc4)n3)s2)cc1 | > 100 µM | 80.3 µM
9 | C(=N\c1nnc(SCc2c[se]c(-c3ccccc3)n2)s1)/c1ccccc1 | 46.5 µM | 25.6 µM
10 | Oc1ccc(/C=N/c2nnc(SCc3c[se]c(-c4ccccc4)n3)s2)cc1 | > 100 µM | 31.1 µM
11 | Cc1ccc(/C=N/c2nnc(SCc3c[se]c(-c4ccccc4)n3)s2)cc1 | 58.6 µM | 7.55 µM
12 | Clc1ccc(/C=N/c2nnc(SCc3c[se]c(-c4ccccc4)n3)s2)cc1 | 50 µM | 4.02 µM

— ChEMBL document CHEMBL3091426, “Synthesis and antitumor-evaluation of 1,3-selenazole-containing 1,3,4-thiadiazole derivatives” (Bioorg Med Chem Lett, 2013)
